Where two headings read alike, the source gives them in different places.
Legend:
[1] = tested on: production of prostaglandins; test: Inhibition of prostaglandin production in the carrageenin air-pouch model; format: in vivo; conditions: oral, mouse
Excerpt: In addition, those compounds exert an activity in animals especially by inhibiting the production of prostaglandins in the carrageenin air-pouch model in the mouse (Whittle, B. J. R. et al., Nature, 1980, 284, 271-273; Masferrer, J. L. el al., Proc. Natl. Acad. Sci. USA, 1994, 91, 3228-3232).

[2] = target: T1, cyclooxygenase 1 (COX 1) (Mus musculus, UniProt P22437); test: Inhibitory activity in relation to COX 1 in peritoneal macrophages exposed to zymosan; format: cell-based; conditions: mice peritoneal macrophages
T1 construct: using mice peritoneal macrophages exposed to inflammatory stimuli (zymosan and LPS, respectively); endogenous in cells; host or cells: mouse peritoneal macrophages exposed to zymosan
T1 sequence (P22437 27-602): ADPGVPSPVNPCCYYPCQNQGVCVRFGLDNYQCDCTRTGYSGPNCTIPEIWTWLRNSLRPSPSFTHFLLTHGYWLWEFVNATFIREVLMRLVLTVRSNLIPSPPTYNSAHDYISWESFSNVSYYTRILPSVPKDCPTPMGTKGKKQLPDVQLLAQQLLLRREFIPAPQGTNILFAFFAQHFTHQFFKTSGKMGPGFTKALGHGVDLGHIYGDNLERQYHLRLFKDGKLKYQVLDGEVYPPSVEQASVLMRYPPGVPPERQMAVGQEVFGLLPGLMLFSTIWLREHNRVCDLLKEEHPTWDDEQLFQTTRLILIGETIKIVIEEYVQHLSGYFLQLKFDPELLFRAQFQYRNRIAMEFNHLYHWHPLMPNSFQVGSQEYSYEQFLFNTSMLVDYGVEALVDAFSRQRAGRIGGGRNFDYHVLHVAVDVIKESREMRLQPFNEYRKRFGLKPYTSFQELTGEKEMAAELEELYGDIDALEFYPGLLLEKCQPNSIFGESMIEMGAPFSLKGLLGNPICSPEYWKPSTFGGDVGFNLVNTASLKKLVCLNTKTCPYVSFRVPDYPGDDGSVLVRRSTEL
Procedure: (§1) The inhibitory activities of the compounds in relation to COX 1 and COX 2 were evaluated using mice peritoneal macrophages exposed to inflammatory stimuli (zymosan and LPS, respectively) in accordance with the method described by Tordjman el al., Biochimica et Biophysica Acta, 1995, 1256, 249-56.

[3] = tested on: NO production in mouse peritoneal macrophages; test: Inhibition of NO production in peritoneal macrophages stimulated with LPS; format: cell-based; conditions: Peritoneal macrophage
[4] = target: T2, cyclooxygenase 2 (COX 2) (Mus musculus, UniProt Q05769); test: Inhibitory activity in relation to COX 2 in peritoneal macrophages exposed to LPS; format: cell-based
T2 construct: using mice peritoneal macrophages exposed to inflammatory stimuli (zymosan and LPS, respectively); endogenous in cells; host or cells: mouse peritoneal macrophages exposed to LPS
T2 sequence (Q05769 18-604): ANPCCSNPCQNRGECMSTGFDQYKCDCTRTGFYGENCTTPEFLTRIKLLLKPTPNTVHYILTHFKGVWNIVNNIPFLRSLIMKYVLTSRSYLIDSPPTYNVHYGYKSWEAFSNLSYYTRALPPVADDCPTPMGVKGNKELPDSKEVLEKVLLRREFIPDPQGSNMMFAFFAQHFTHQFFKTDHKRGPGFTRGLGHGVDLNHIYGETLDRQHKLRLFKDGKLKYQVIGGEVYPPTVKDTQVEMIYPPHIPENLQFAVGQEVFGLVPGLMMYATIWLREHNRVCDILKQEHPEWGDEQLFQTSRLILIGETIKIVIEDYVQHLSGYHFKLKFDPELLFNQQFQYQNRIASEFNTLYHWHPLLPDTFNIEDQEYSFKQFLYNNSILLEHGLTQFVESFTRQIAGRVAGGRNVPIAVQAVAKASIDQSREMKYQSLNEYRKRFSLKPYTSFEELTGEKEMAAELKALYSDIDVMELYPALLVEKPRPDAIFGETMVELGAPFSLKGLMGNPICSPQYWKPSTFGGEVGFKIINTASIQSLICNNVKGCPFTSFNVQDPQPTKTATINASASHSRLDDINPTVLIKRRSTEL
Procedure: as §1

[5] = tested on: IL1β production by THP1 line cells; test: Inhibition of production of IL1β by THP1 line cells stimulated with LPS; format: cell-based; conditions: Homo sapiens, THP-1

Compound	IC50 [2] [nM]	further results
Fc1ccc(-c2[nH]c(-c3ccc(F)cc3)c3c2C2CCC3C2)cc1 [Example 19, 1,3-di-(4-fluorophenyl)-4,7-methano-4,5,6,7-tetrahydro-2H-isoindole]	100	ED50 [1]: 2.5 mg/kg; IC50 [3]: 2500 nM
C1=CCc2c(-c3ccccc3)[nH]c(-c3ccccc3)c2C1 [Example 5, 1,3-diphenyl-4,7-dihydro-2H-isoindole]	100	–
c1ccc(-c2[nH]c(-c3ccccc3)c3c2CCCC3)cc1 [Example 2, 1,3-diphenyl-4,5,6,7-tetrahydro-2H-isoindole]	100 to 500	IC50 ([4]; read-out: IC50 cox 2, mice peritoneal macrophages): 1 nM
CC1Cc2c(-c3ccccc3)[nH]c(-c3ccccc3)c2CC1C (stereo not shown) [Example 9, 1,3-diphenyl-5,6-dimethyl-4,5,6,7-tetrahydro-2H-isoindole]	–	IC50 [5]: ~1000 nM
c1ccc(-c2[nH]c(-c3ccccc3)c3c2CCC3)cc1 [Example 4, 1,3-diphenyl-2,4,5,6-tetrahydrocyclopenta[c]pyrrole]	100 to 500	–
Fc1ccc(-c2[nH]c(-c3ccc(F)cc3)c3c2CCCC3)cc1 [Example 1, 1,3-di-(4-fluorophenyl)-4,5,6,7-tetrahydro-2H-isoindole]	100 to 500	IC50 ([4]; mice peritoneal macrophages, read-out: IC50 cox 2): 1 nM
